Measurements reported in article PMC11653243, “Enhancing Phototoxicity in BODIPY‐Perylene Charge Transfer Dyads by Combined Iodination and Mesylation” (Chemistry (Weinheim an Der Bergstrasse, Germany), 2024).

What was measured:
HeLa cells = system: HeLa cells; design: method as in PMID 31743947; conditions: 9.6 J/cm^2, 500 nm irradiation; cited from earlier work
MCF‐7 cells = assay: Hypoxic phototoxicity (CoCl2 induced hypoxia); format: cell-based; conditions: Homo sapiens, MCF7, 300 μM CoCl2 4 h, 470 nm LED, maximum 1 μM tested, read-out: hypoxic IC50 (light)
Method: (§1) Cobalt chloride (CoCl2), a popular chemical hypoxia inducer, was added to the cells (after incubation with B2PI or MB2PI) at a total concentration of 300 μM CoCl2 in media and incubated for 4 h to mimic hypoxic conditions. In comparison to low‐oxygen induced hypoxia, this method stabilises hypoxia inducible factor 1 alpha subunit (HIF‐1α) for some hours after treatment, allowing a greater window for the phototoxicity studies.[52] We have previously confirmed the chemical induction of hypoxia with CoCl2 using an enzyme linked immunosorbent assay to detect HIF‐1α in cell lysates.[53] The cells were irradiated immediately upon removal of the media/CoCl2 solution as per the normoxic phototoxicity protocol.
(§2) Dark‐ and photo‐toxicity studies were performed by seeding CHO and MCF‐7 cells in clear 96‐well plates (Nunc) and treating with varying concentrations of B2P, MB2P, B2PI and MB2PI. Phototoxicity experiments were carried out using a 470 nm LED. For hypoxic phototoxicity studies, hypoxia was mimicked by adding CoCl2 to the cells prior to irradiation. Cell viability was determined using the alamar blue assay and absorbance measured with a BMG LABTECH CLARIOstar plate reader.
(§3) Hypoxic Phototoxicity Studies
(§4) Hypoxic phototoxicity studies were performed as per routing phototoxicity protocol. Hypoxia […]
(§5) A 1 M stock of CoCl2 in sterile 1X PBS […]

CHO cells = assay: Hypoxic phototoxicity (CoCl2 induced hypoxia); format: cell-based, Chinese Hamster; conditions: Cricetulus griseus, 300 μM CoCl2 4 h, 470 nm LED, maximum 1 μM tested, read-out: hypoxic IC50 (light)
Method: as §1, §2, §3, §4, §5

CC1=CC(C)=[N+]2C1=C(c1ccccc1)c1c(C)c(-c3ccc4c5cccc6cccc(c7cccc3c74)c65)c(C)n1[B-]2(F)F [B2P]
phototoxic index (PI) (HeLa cells): 1041

CC1=C(c2ccc3c4cccc5cccc(c6cccc2c63)c54)C(C)=[N+]2C1=C(c1c(C)cc(C)cc1C)c1c(C)c(I)c(C)n1[B-]2(F)F [MB2PI]
IC50 (MCF‐7 cells): > 1000 nM
IC50 (CHO cells): > 1000 nM
